# Where two headings read alike, the source gives them in different places.
# Columns and labels:
# Assay type in all cases: biochemical
# caspase 1 = biological target: T1, caspase 1 (Homo sapiens, UniProt P29466); assay: Enzyme inhibition assay, caspase 1 (fluorogenic Ac-YVAD-AMC)
# T1 construct: purchased BIOMOL Research Laboratories (Plymouth Meeting, Pa.)
# T1 sequence (P29466 120-297 limits assumed): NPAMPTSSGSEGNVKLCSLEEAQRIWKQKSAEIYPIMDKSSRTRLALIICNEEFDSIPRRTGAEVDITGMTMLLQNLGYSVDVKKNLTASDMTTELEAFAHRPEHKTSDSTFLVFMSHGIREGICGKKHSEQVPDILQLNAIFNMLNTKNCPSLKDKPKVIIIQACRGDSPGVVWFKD
# T1 sequence (P29466 317-404 limits assumed): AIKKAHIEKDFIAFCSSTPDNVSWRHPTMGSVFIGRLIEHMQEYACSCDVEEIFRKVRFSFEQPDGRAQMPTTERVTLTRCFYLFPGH
# Protocol: (§1) Enzyme Assays. Inhibition of recombinant human caspase-3 and other caspases by the isatin analogues was assessed using a fluorometric assay by measuring the accumulation of a fluorogenic product, 7-amino-4-methylcoumarin (7-AMC).
# (§2) Enzyme Inhibition Assays. Recombinant human caspases (3, 6, 7, and 8) and their peptide-specific substrates (Ac-DEVDAMC, Ac-VEID-AMC, Ac-DEVD-AMC, and Ac-IETD-AMC, respectively) were purchased from Sigma-Aldrich (St. Louis, Mo.) with the exception of caspase 1 and its substrate (Ac-YVAD-AMC), which were obtained from BIOMOL Research Laboratories (Plymouth Meeting, Pa.). The enzymatic activity of caspases was determined by measuring the accumulation of the fluorogenic product 7-amino-4-methylcoumarin (AMC). All assays were prepared in 96-well format at a volume of 210 μL per well and consisted of 100 mM Na+ HEPES (pH 7.4), 10% sucrose, 100 mM NaCl, 0.1% CHAPS, 5 mM 2-mercaptoethanol, 2 mM EDTA, 10 μM Ac-YVAD-AMC (caspase 1); 20 mMNa^+ HEPES (pH 7.4), 10% sucrose, 100 mMNaCl, 0.1% CHAPS, 2 mM EDTA, 10 μM Ac-DEVD-AMC (caspase 3); 20 mM Na^+ HEPES (pH 7.4), 10% sucrose, 100 mM NaCl, 0.1% CHAPS, 2 mM EDTA, 10 μM Ac-VEID-AMC (caspase 6); 20 mM Na+ HEPES (pH 7.4), 100 mM NaCl, 10% sucrose, 0.1% CHAPS, 5 mM 2-mercaptoethanol, 2 mM EDTA, 10 μM Ac-DEVD-AMC (caspase 7); 20 mM Na+ HEPES (pH 7.4), 10% sucrose, 100 mM NaCl, 0.1% CHAPS, 2 mM EDTA, 10 μM Ac-IETD-AMC (caspase 8).
# (§3) Recombinant caspases were first assayed to determine the optimal concentration for each experiment. Optimal concentrations were based in the linear range of the enzyme activation curves. Peptide inhibitors with known IC50 values were tested together with the compounds as a control for each caspase assay. […] Peptide and nonpeptide inhibitors were dissolved in DMSO, and a 2 serial dilution was performed prior to screening in order to obtain desired concentrations. 10 μL was added to each well containing 100 μL caspase solution and allowed to incubate on ice for 30 min. […] The final concentration of DMSO in all wells was 5% of the total volume. In caspase-1 and caspase-7 assays, 10 mM 2-mercaptoethanol was added to the substrate solution for full activation of the enzymes.
# (§4) Compounds were tested in duplicate, and IC50 curves were calculated for all inhibitors assayed. Final IC50s were the average of three independent experiments.
# caspase-3 = biological target: T2, caspase-3 (Homo sapiens, UniProt P42574); assay: Enzyme inhibition assay, caspase 3 (fluorogenic Ac-DEVD-AMC)
# T2 construct: purchased Sigma-Aldrich (St. Louis, Mo.)
# T2 sequence (P42574 29-175 limits assumed): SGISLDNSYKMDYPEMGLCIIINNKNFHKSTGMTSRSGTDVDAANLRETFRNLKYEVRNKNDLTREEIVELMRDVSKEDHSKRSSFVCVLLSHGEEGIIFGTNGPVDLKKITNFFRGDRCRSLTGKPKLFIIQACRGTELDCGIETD
# T2 sequence (P42574 176-277 limits assumed): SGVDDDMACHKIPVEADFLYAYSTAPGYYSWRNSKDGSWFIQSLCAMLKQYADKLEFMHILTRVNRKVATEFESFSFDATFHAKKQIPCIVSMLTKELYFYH
# Protocol: as §1, §2, §3, §4
# caspase 6 = biological target: T3, caspase 6 (Homo sapiens, UniProt P55212); assay: Enzyme inhibition assay, caspase 6 (fluorogenic Ac-VEID-AMC)
# T3 construct: purchased Sigma-Aldrich (St. Louis, Mo.)
# T3 sequence (P55212 24-179 limits assumed): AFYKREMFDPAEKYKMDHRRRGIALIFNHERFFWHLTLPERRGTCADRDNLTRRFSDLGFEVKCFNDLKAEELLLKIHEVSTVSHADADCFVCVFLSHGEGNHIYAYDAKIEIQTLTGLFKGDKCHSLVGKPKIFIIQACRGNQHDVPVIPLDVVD
# T3 sequence (P55212 194-293 limits assumed): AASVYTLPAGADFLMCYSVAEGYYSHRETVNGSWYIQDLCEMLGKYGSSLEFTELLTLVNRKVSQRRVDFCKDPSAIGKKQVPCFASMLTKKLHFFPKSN
# caspase 7 = biological target: T4, caspase 7 (Homo sapiens, UniProt P55210); assay: Enzyme inhibition assay, caspase 7 (fluorogenic Ac-DEVD-AMC)
# T4 construct: purchased Sigma-Aldrich (St. Louis, Mo.)
# T4 sequence (P55210 24-198 limits assumed): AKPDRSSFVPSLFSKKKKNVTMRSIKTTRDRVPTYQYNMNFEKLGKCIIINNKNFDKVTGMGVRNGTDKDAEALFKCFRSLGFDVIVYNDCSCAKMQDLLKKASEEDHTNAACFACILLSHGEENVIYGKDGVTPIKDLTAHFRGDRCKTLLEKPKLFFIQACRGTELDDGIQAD
# T4 sequence (P55210 207-303 limits assumed): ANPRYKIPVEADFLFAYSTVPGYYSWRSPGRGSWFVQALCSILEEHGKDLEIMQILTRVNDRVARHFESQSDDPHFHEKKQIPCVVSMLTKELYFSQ
# Protocol: as §1, §2, §3, §4
# caspase 8 = biological target: T5, caspase 8 (Homo sapiens, UniProt Q14790); assay: Enzyme inhibition assay, caspase 8 (fluorogenic Ac-IETD-AMC)
# T5 construct: purchased Sigma-Aldrich (St. Louis, Mo.)
# T5 sequence (Q14790 217-374 limits assumed): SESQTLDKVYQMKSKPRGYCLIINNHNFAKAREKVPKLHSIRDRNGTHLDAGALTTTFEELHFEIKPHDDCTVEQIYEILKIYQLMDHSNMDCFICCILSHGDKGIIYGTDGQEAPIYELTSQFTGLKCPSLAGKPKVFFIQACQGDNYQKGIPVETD
# T5 sequence (Q14790 385-479 limits assumed): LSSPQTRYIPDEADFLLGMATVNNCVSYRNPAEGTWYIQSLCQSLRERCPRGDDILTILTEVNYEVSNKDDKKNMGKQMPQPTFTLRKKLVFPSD
# [1] = Table 2, read-out: IC50 (nM) Caspase 6
# [2] = Table 2, read-out: IC50 (nM) Caspase 8
# [3] = Table 7, read-out: IC50 (nM) Casp-8
# [4] = Table 2, read-out: IC50 (nM) Caspase 1
# [5] = Table 7, read-out: IC50 (nM) Casp-1
# [6] = Table 2, read-out: IC50 (nM) Caspase 3
# [7] = Table 7, read-out: IC50 (nM) Casp-3
# [8] = Table 7, read-out: IC50 (nM) Casp-6
# [9] = Table 2, read-out: IC50 (nM) Caspase 7
# [10] = Table 7, read-out: IC50 (nM) Casp-7
# [11] = Table 6, read-out: IC50 (nM) caspase-1
# [12] = Table 6, read-out: IC50 (nM) caspase-3
# [13] = Table 6, read-out: IC50 (nM) caspase-6
# [14] = Table 6, read-out: IC50 (nM) caspase-7
# [15] = Table 6, read-out: IC50 (nM) caspase-8
compound,measurement,setting,value
"N#CC(C#N)=C1C(=O)N(Cc2ccc(O)cc2)c2ccc(S(=O)(=O)N3CCCC3COc3cccnc3)cc21 (centres unmarked) [Compound 30b, 2-{1-(4-Hydroxy-benzyl)-2-oxo-5-[2-(pyridine-3-yloxymethyl)-pyrrolidine-1-sulfonyl]-1,2-dihydro-indol-3-yl-idene}-malononitrile]",IC50,caspase 1,2720 nM
same,IC50,"caspase 1; IC50 (nM) Casp-1, Table 7",2720 ± 580 nM
same,IC50,caspase 1; read-out: IC50 for caspase-1,2700 to 3200 nM
same,IC50,"caspase-3; IC50 (nM) Casp-3, Table 7",7.8 ± 1.9 nM
same,IC50,"caspase-3; IC50 (nM) Caspase 3, Table 2",7.8 ± 1.9 nM
same,IC50,caspase-3; IC50 for caspase-3,7.8 nM
same,IC50,caspase 6,650 ± 22 nM
same,IC50,caspase 6; [1],850 ± 21 nM
same,IC50,caspase 6; read-out: IC50 for caspase-6,515 to 770 nM
same,IC50,"caspase 7; IC50 (nM) Casp-7, Table 7",28.3 ± 5.4 nM
same,IC50,"caspase 7; IC50 (nM) Caspase 7, Table 2",28.3 ± 5.4 nM
same,IC50,caspase 7; IC50 for caspase-7,28.6 nM
same,IC50,caspase 8; [2],> 50000 nM
same,IC50,caspase 8; [3],> 50000 nM
same,IC50,caspase 8; read-out: IC50 for caspase-8,> 50000 nM
"N#CC(C#N)=C1C(=O)N(Cc2ccc(Br)cc2)c2ccc(S(=O)(=O)N3CCCC3COc3ccccc3)cc21 (centres unmarked) [Compound 27d, 2-[1-(4-Bromo-benzyl)-2-oxo-5-(2-phenoxymethyl-pyrrolidine-1-sulfonyl)-1,2-dihydro-indol-3-yl-idene]-malononitrile]",IC50,caspase 1; [4],5700 nM
same,IC50,caspase 1; [5],5700 ± 850 nM
same,IC50,caspase-3; [6],20.1 ± 1.3 nM
same,IC50,caspase-3; [7],20.1 ± 1.3 nM
same,IC50,caspase-3; read-out: IC50 for caspase-3,20.1 nM
same,IC50,caspase 6; [1],840 ± 125 nM
same,IC50,caspase 6; [8],840 ± 125 nM
same,IC50,caspase 7; [9],92.2 ± 11.8 nM
same,IC50,caspase 7; [10],92.2 ± 11.8 nM
same,IC50,caspase 7; read-out: IC50 for caspase-7,92.2 nM
same,IC50,caspase 8; [2],> 50000 nM
same,IC50,caspase 8; [3],> 50000 nM
O=C1C(=O)N(Cc2ccc(OCCF)cc2)c2ccc(S(=O)(=O)N3CCC[C@H]3COc3cccnc3)cc21 [WC-II-100],IC50,"caspase 1; Table 1, read-out: IC50 (nM) Caspase 1",> 20000 nM
same,IC50,"caspase-3; Table 1, read-out: IC50 (nM) Caspase 3",3.1 ± 0.4 nM
same,IC50,"caspase 6; Table 1, read-out: IC50 (nM) Caspase 6",6900 nM
same,IC50,"caspase 7; Table 1, read-out: IC50 (nM) Caspase 7",11.3 ± 0.6 nM
same,IC50,"caspase 8; Table 1, read-out: IC50 (nM) Caspase 8",> 50000 nM
"CN1C(=O)C(=C(C#N)C#N)c2cc(S(=O)(=O)N3CCCC3COc3ccccc3)ccc21 (centres unmarked) [Compound 27a, 2-[1-Methyl-2-oxo-5-(2-phenoxymethyl-pyrrolidine-1-sulfonyl)-1,2-dihydro-indol-3-yl-idene]-malononitrile]",IC50,caspase 1; [4],2820 nM
same,IC50,caspase 1; [5],2820 ± 248 nM
same,IC50,caspase-3; [6],119 ± 4 nM
same,IC50,caspase-3; [7],119 ± 4 nM
same,IC50,caspase 6; [1],698 ± 94 nM
same,IC50,caspase 6; [8],698 ± 94 nM
same,IC50,caspase 7; [9],785 ± 276 nM
same,IC50,caspase 7; [10],785 ± 276 nM
same,IC50,caspase 8; [2],> 50000 nM
same,IC50,caspase 8; [3],> 50000 nM
COc1ccc(CN2C(=O)C(=CC#N)c3cc(S(=O)(=O)N4CCC[C@H]4COc4ccccc4)ccc32)cc1 [WC-II-99],IC50,caspase-3; [6],> 1000 nM
same,potency as caspase-3/7 inhibitors (in words),caspase-3,low potency
"O=C1C(=O)N(Cc2ccc(O)cc2)c2ccc(S(=O)(=O)N3CCCC3COc3cccnc3)cc21 (centres unmarked) [Compound 28b, 1-(4-Hydroxy-benzyl)-5-[2-(pyridin-3-yl-oxymethyl)-pyrrolidine-1-sulfonyl]-1H-indole-2,3-dione]",IC50,caspase 1; [5],> 15000 nM
same,IC50,"caspase-3; IC50 (nM) Casp-3, Table 7",3.9 ± 0.6 nM
same,IC50,caspase 6,9550 ± 354 nM
same,IC50,"caspase 7; IC50 (nM) Casp-7, Table 7",11.7 ± 1 nM
same,IC50,caspase 8; [3],> 50000 nM
"O=C1C(=O)N(Cc2ccc(F)cc2)c2ccc(S(=O)(=O)N3CCCC3COc3cccnc3)cc21 (centres unmarked) [Compound 21e, 1-(4-Fluorobenzyl)-5-(2-(pyridin-3-yl-oxymethyl)-pyrrolidine-1-sulfonyl)-1H-indole-2,3-dione]",IC50,caspase 1; [11],> 10000 nM
same,IC50,caspase-3; [12],8.4 ± 2 nM
same,IC50,caspase 6; [13],> 5000 nM
same,IC50,caspase 7; [14],15.1 ± 0.1 nM
same,IC50,caspase 8; [15],> 50000 nM
O=C1Nc2ccc(S(=O)(=O)N3CCC[C@H]3COc3ccccc3)cc2C1=NO [WC(II)-51],potency as caspase-3/7 inhibitors (in words),caspase-3,low potency
"O=C1Nc2ccc(S(=O)(=O)N3CCCC3COc3ccncc3)cc2C1=O (centres unmarked) [Compound 23, 5-(2-(Pyridin-4-yl-oxymethyl)-pyrrolidine-1-sulfonyl)-1H-indole-2,3-dione]",IC50,caspase 1; [11],> 5000 nM
same,IC50,caspase-3; [12],20.4 ± 1.7 nM
same,IC50,caspase 6; [13],> 5000 nM
same,IC50,caspase 7; [14],142 ± 22.6 nM
same,IC50,caspase 8; [15],> 50000 nM
"O=C1Nc2ccc(S(=O)(=O)N3CCC[C@H]3COc3ccccc3)cc2C1=O [Compound 10, (S)-5-(2-Phenoxymethyl-pyrrolidine-1-sulfonyl)-1H-indole-2,3-dione]",IC50,"caspase-3; Table 4, read-out: IC50 (nM) caspase-3",240 ± 10 nM
same,IC50,"caspase 7; Table 4, read-out: IC50 (nM) caspase-7",540 ± 56.6 nM

# From patent publication US8329686B2, “Isatin analogues and uses therefor” (Washington University, priority 2006, dated 2012)
